Laboratory results from article PMC5423977, “Safety, pharmacokinetics, and pharmacodynamics of BMS-986142, a novel reversible BTK inhibitor, in healthy participants” (European Journal of Clinical Pharmacology, 2017).
Read-outs that look alike come from different tables or passages of the source.

Tests used:
[1] = Plasma pharmacokinetics of BMS-986142, SAD; assay type: in vivo; conditions: human, oral; for AUC(0-t): n = 6, read-out: AUC(0-T) geometric mean (%CV); for Cmax: n = 6, read-out: Cmax geometric mean (%CV)
Protocol: Eligible participants were confined to the clinical facility (WCCT Global, LLC, Cypress, CA) the day before dosing (day −1) and randomized to receive SAD or MAD treatment under fasting conditions for 10 h. In the SAD group, eight healthy non-Japanese participants were assigned to each of up to six sequential dose panels (single oral doses of 5, 15, 50, 100, 300, and 900 mg BMS-986142) or placebo. Within each dose panel, participants were randomized in a 3:1 ratio to receive BMS-986142 (n = 6) or placebo (n = 2). In the MAD group, eight healthy non-Japanese participants were assigned to each of four sequential dose panels (daily oral doses of 25, 75, 200, and 350 mg BMS-986142) or placebo. Within each dose panel, participants were randomized in a 3:1 ratio to receive once-daily (QD) doses of BMS-986142 or placebo from day 1 to day 14 (Online Resource 1). Escalation to the next dose level in SAD and MAD was conducted after safety assessment had been completed and the treatment was considered safe and well tolerated. Additionally, dose levels in MAD were selected not to exceed the steady-state exposure of BMS-986142 (AUC: 22,920 ng h/mL) at NOAEL in rats obtained from a 1-month GLP toxicology study.
Blood samples for the measurement of BMS-986142 were collected up to 168 h after dosing of BMS-986142 on day 1 for participants in SAD. In MAD, blood samples were collected up to 24 h on day 1 and up to 120 h on day 14 (the last day of treatment). Blood samples for the measurement of MTX were collected up to 48 h after dosing of MTX on days 1 and 8.
Plasma samples were analyzed for BMS-986142 levels with a validated method using liquid chromatography tandem mass spectrometry (LC-MS/MS) detection. The analyte was extracted from 50 μL of plasma using a liquid–liquid extraction method. Methyl tert-butyl ether was used as the extraction solvent. The lower limit of quantification (LLOQ) was 1.00 ng/mL in plasma. Plasma samples were analyzed for methotrexate levels using LC-MS/MS detection. Analytes were isolated from 50 μL plasma through solid phase extraction using Waters Oasis MAX, 10-mg, 96-well SPE plates. The final extract was analyzed using LC-MS/MS detection. LLOQ was 1.00 ng/mL in plasma. Detailed methodology quantitating the concentration level of BMS-986142 and MTX is provided in Online Resource 10.
Individual subject pharmacokinetic parameters for BMS-986142 and MTX were derived by a non-compartmental method using validated PK software (WinNonLin version 6.3; Pharsight Corporation, Mountain View, CA, USA). The following PK parameters for BMS-986142 and MTX were derived from plasma concentration versus time data: maximum observed plasma concentration (Cmax); minimum observed plasma concentration (Cmin); time to maximum observed plasma concentration (Tmax); area under the plasma concentration-time curve from time zero to the time of the last quantifiable concentration (AUC(0-T)), from time zero extrapolated to infinite time (AUC(inf)), and in one dosing interval (AUC(TAU)); terminal plasma half-life (T1/2); and AUC accumulation index (AI_AUC). AI_AUC was calculated to divide AUC(TAU) on day 14 by AUC(TAU) on day 1.
Summary statistics were tabulated for all PK parameters by treatment and study days. Geometric mean (Gmean) and coefficient of variation (CV) are presented for Cmax, AUC(0-T), AUC(inf), AI_AUC, Cmin, and AUC(TAU); arithmetic mean and standard deviation (SD) are presented for T1/2; and median and range are presented for Tmax. Dose proportionality was assessed using the previously described power model. Briefly, the simple linear regression was applied to the natural log of the PK parameters on the natural log of dose using the following equation (Eq. 1).1 ElogPKParameterDose=α+β∗logDose.
A slope (β) equal to 1 would indicate perfect dose proportionality. For each PK parameter (Cmax, AUC(0-T), AUC(TAU), and AUC(inf)), point estimates and 90% CI of the slopes were calculated.

[2] = 12-lead ECG, baseline-corrected QTcF; assay type: in vivo, human; conditions: for Maximum change from baseline in QTcF interval >30-≤60 msec / Maximum change from baseline in QTcF interval >60 msec / Maximum change from baseline in QTcF interval ≤30 msec: n = 6
Protocol: Participants were monitored for adverse events (AEs) throughout the study. Clinical laboratory tests, vital sign measurements, 12-lead ECGs, and physical examinations were performed at selected times throughout the dosing interval. Safety data was recorded in the participants’ medical records, and assessments were performed for emergent AEs or serious AEs (SAEs). For all AEs, causal relationship to the study drug was determined by an investigator. QT signals obtained from 12-lead ECGs were corrected by heart rate using Fridericia’s formula (QTcF). Baseline-corrected QTcF (∆QTcF) were evaluated to determine QT elongation.

[3] = tested on: collagen-induced arthritis model; conditions: combined with standard of care agents (e.g., MTX); cited from earlier work

Cc1c(-c2c(F)cc(C(N)=O)c3[nH]c4c(c23)CC[C@H](C(C)(C)O)C4)cccc1-n1c(=O)c2cccc(F)c2n(C)c1=O [BMS-986142, 6-fluoro-5-(R)-(3-(S)-(8-fluoro-1-methyl-2,4-dioxo-1,2-dihydroquinazolin-3(4H)-yl)-2-methylphenyl)-2-(S)-(2-hydroxypropan-2-yl)-2,3,4,9-tetrahydro-1H-carbazole-8-carboxamide]
half-life ([1]; both sexes, 5 mg, at low dose levels, read-out: T1/2 (converted)): ~420 min
half-life ([1]; both sexes, at therapeutic doses, read-out: Mean T1/2): ≤ 660 min
half-life ([1]; both sexes, single dose, 5–900 mg dose range, read-out: Mean T1/2 (half-life), range over doses): 420 to 660 min
Tmax ([1]; both sexes, single dose, 5–900 mg dose range, read-out: Median Tmax (time of peak concentrations)): ≤ 2 h
half-life ([1]; 5 mg, SAD day 1, 5 mg, n = 5, read-out: T1/2 mean (SD) (converted)): 412 min
half-life ([1]; 15 mg, SAD day 1, 15 mg, n = 6, read-out: T1/2 mean (SD) (converted)): 481 min
half-life ([1]; 50 mg, SAD day 1, 50 mg, n = 6, read-out: T1/2 mean (SD) (converted)): 582 min
half-life ([1]; 100 mg, SAD day 1, 100 mg, n = 6, read-out: T1/2 mean (SD) (converted)): 618 min
half-life ([1]; 300 mg, SAD day 1, 300 mg, n = 6, read-out: T1/2 mean (SD) (converted)): 636 min
half-life ([1]; 900 mg, SAD day 1, 900 mg, n = 6, read-out: T1/2 mean (SD) (converted)): 642 min
AUC(0-inf) ([1]; SAD day 1, 5 mg, n = 5, read-out: AUC(inf) geometric mean (%CV)): 102 ng·h/mL
AUC(0-t) ([1]; SAD day 1, 5 mg): 83.1 ng·h/mL
Cmax ([1]; SAD day 1, 5 mg): 9.03 ng/mL
Tmax ([1]; SAD day 1, 5 mg, n = 6, read-out: Tmax median (min, max)): 2.03 h
AUC(0-t) ([1]; SAD day 1, 15 mg): 369 ng·h/mL
AUC(0-inf) ([1]; SAD day 1, 15 mg, n = 6, read-out: AUC(inf) geometric mean (%CV)): 388 ng·h/mL
Cmax ([1]; SAD day 1, 15 mg): 36.9 ng/mL
Tmax ([1]; SAD day 1, 15 mg, n = 6, read-out: Tmax median (min, max)): 2 h
AUC(0-t) ([1]; SAD day 1, 50 mg): 1560 ng·h/mL
AUC(0-inf) ([1]; SAD day 1, 50 mg, n = 6, read-out: AUC(inf) geometric mean (%CV)): 1590 ng·h/mL
Cmax ([1]; SAD day 1, 50 mg): 185 ng/mL
Tmax ([1]; SAD day 1, 50 mg, n = 6, read-out: Tmax median (min, max)): 1 h
AUC(0-t) ([1]; SAD day 1, 100 mg): 3000 ng·h/mL
AUC(0-inf) ([1]; SAD day 1, 100 mg, n = 6, read-out: AUC(inf) geometric mean (%CV)): 3020 ng·h/mL
Cmax ([1]; SAD day 1, 100 mg): 311 ng/mL
Tmax ([1]; SAD day 1, 100 mg, n = 6, read-out: Tmax median (min, max)): 1.5 h
AUC(0-t) ([1]; SAD day 1, 300 mg): 11300 ng·h/mL
AUC(0-inf) ([1]; SAD day 1, 300 mg, n = 6, read-out: AUC(inf) geometric mean (%CV)): 11400 ng·h/mL
Cmax ([1]; SAD day 1, 300 mg): 1080 ng/mL
Tmax ([1]; SAD day 1, 300 mg, n = 6, read-out: Tmax median (min, max)): 1.02 h
AUC(0-t) ([1]; SAD day 1, 900 mg): 28000 ng·h/mL
AUC(0-inf) ([1]; SAD day 1, 900 mg, n = 6, read-out: AUC(inf) geometric mean (%CV)): 28100 ng·h/mL
Cmax ([1]; SAD day 1, 900 mg): 1880 ng/mL
Tmax ([1]; SAD day 1, 900 mg, n = 6, read-out: Tmax median (min, max)): 2 h
Maximum change from baseline in QTcF interval >30-≤60 msec ([2]; MAD 25 mg): 0 N (%)
Maximum change from baseline in QTcF interval >60 msec ([2]; MAD 25 mg): 0 N (%)
Maximum change from baseline in QTcF interval ≤30 msec ([2]; MAD 25 mg): 6 (100) N (%)
Maximum change from baseline in QTcF interval >30-≤60 msec ([2]; MAD 75 mg): 0 N (%)
Maximum change from baseline in QTcF interval >60 msec ([2]; MAD 75 mg): 0 N (%)
Maximum change from baseline in QTcF interval ≤30 msec ([2]; MAD 75 mg): 6 (100) N (%)
Maximum change from baseline in QTcF interval >30-≤60 msec ([2]; MAD 200 mg): 0 N (%)
Maximum change from baseline in QTcF interval >60 msec ([2]; MAD 200 mg): 0 N (%)
Maximum change from baseline in QTcF interval ≤30 msec ([2]; MAD 200 mg): 6 (100) N (%)
Maximum change from baseline in QTcF interval >30-≤60 msec ([2]; MAD 350 mg): 0 N (%)
Maximum change from baseline in QTcF interval >60 msec ([2]; MAD 350 mg): 0 N (%)
Maximum change from baseline in QTcF interval ≤30 msec ([2]; MAD 350 mg): 6 (100) N (%)
Maximum change from baseline in QTcF interval >30-≤60 msec ([2]; SAD 5 mg): 0 N (%)
Maximum change from baseline in QTcF interval >60 msec ([2]; SAD 5 mg): 0 N (%)
Maximum change from baseline in QTcF interval ≤30 msec ([2]; SAD 5 mg): 6 (100) N (%)
Maximum change from baseline in QTcF interval >30-≤60 msec ([2]; SAD 15 mg): 0 N (%)
Maximum change from baseline in QTcF interval >60 msec ([2]; SAD 15 mg): 0 N (%)
Maximum change from baseline in QTcF interval ≤30 msec ([2]; SAD 15 mg): 6 (100) N (%)
Maximum change from baseline in QTcF interval >30-≤60 msec ([2]; SAD 50 mg): 0 N (%)
Maximum change from baseline in QTcF interval >60 msec ([2]; SAD 50 mg): 0 N (%)
Maximum change from baseline in QTcF interval ≤30 msec ([2]; SAD 50 mg): 6 (100) N (%)
Maximum change from baseline in QTcF interval >30-≤60 msec ([2]; SAD 100 mg): 0 N (%)
Maximum change from baseline in QTcF interval >60 msec ([2]; SAD 100 mg): 0 N (%)
Maximum change from baseline in QTcF interval ≤30 msec ([2]; SAD 100 mg): 6 (100) N (%)
Maximum change from baseline in QTcF interval >30-≤60 msec ([2]; SAD 300 mg): 0 N (%)
Maximum change from baseline in QTcF interval >60 msec ([2]; SAD 300 mg): 0 N (%)
Maximum change from baseline in QTcF interval ≤30 msec ([2]; SAD 300 mg): 6 (100) N (%)
Maximum change from baseline in QTcF interval >30-≤60 msec ([2]; SAD 900 mg): 0 N (%)
Maximum change from baseline in QTcF interval >60 msec ([2]; SAD 900 mg): 0 N (%)
Maximum change from baseline in QTcF interval ≤30 msec ([2]; SAD 900 mg): 6 (100) N (%)
Increase from baseline in maximum post-dose QTcF ([2]; SAD and MAD): No participants showed greater than 30 ms increase from baseline
Efficacy against disease endpoints in combination [3]: Added benefit against disease endpoints
